Assay results: article PMC8196580, “Identification of Kaurane-Type Diterpenes as Inhibitors of Leishmania Pteridine Reductase I” (Molecules, 2021); call rule not given here
Read-outs that look alike come from different tables or passages of the source.

How the values were obtained:
L. major [1] = experiment: ChEMBL dataset of pIC50 values against L. major used for the RF model (Table S1); type: cell-based, Leishmania major
L. major [2] = system: L. major; design: method as in ChEMBL; settings: ref ChEMBL, cited from earlier work
[3] = Active/Inactive class assigned to ChemBL structures for Random forest model construction (Table S1)
[4] = ChemBL structures with pIC50 values used for Random forest model construction (Table S1)
[5] = Active/Inactive class assigned to the ChEMBL pIC50 value for Random forest model construction, ref ChEMBL
[6] = ChemBL structures with pIC50 values used for Random forest model construction, L. major

SMILES	Outcome (L. major [1]; [3])	pIC50 Value (L. major [2]; [4])	Outcome (L. major [1]; [5])	pIC50 Value (L. major [2]; [6])
COc1cc(OC)c2c(C)[n+](-c3ccc4ccccc4c3)c(C)cc2c1.F[B-](F)(F)F [CHEMBL479838]	Active	5.47		
O=C(/C=C/c1ccc(-n2ccnc2)cc1)c1ccc(F)c(F)c1 [CHEMBL569571]	Active	5.54		
COc1ccccc1-c1nnc(-c2ccc(C(=O)N/N=C/c3ccccc3[N+](=O)[O-])cc2)o1 [CHEMBL4104790]			Inactive	4.19
O=[N+]([O-])c1ccccc1-c1nc2ccccc2[nH]1 [CHEMBL209918]	Active	5.54		
C/C=C(\C)C(=O)NC1=CC[C@@]2(C)C(=CC[C@H]3[C@@H]4CC[C@H]([C@H](C)NC)[C@@]4(C)CC[C@@H]32)C1=O [CHEMBL525190]			Inactive	4.67
Cc1ccc(Cl)cc1Nc1ncnc2ccc([N+](=O)[O-])cc12 [CHEMBL3758550]			Inactive	4.35
C/C(=N/NC(N)=S)c1ccc(OCc2cn(-c3ccc(C(=O)O)cc3)nn2)cc1 [CHEMBL4169531]			Active	5.13
CCN1CN(CC(=O)O)CSC1=S [CHEMBL4284377]			Inactive	4.48
O/N=C1/c2ccccc2OC(c2cccc(Cl)c2)C1n1ccnc1 (centres unmarked) [CHEMBL4088885]			Inactive	4.58
COc1ccccc1C(=O)N/N=C/c1ccc(O)cc1 [CHEMBL2382049]			Inactive	4.24
c1ccc2c(Nc3ccc(NC4CCCC4)cc3)c3ccccc3nc2c1 [CHEMBL90679]	Active	6.35		
CC1=N[C@H](C)Cc2c(-c3cccc(Cl)c3)ccc(O)c21 [CHEMBL1275866]			Inactive	4.28
O=C(CCl)N1c2ccccc2Oc2ccc(C(F)(F)F)cc21 [CHEMBL3759243]			Active	5.02
CCCN1CN(CC(=O)OCc2ccccc2)CSC1=S [CHEMBL4289905]			Inactive	4.03
COc1ccc(-c2csc3c2C2=NCCN2C=N3)cc1OC [CHEMBL1256890]			Inactive	4.00
CCCc1cc(-c2nn3c(-c4ccccc4)nnc3s2)n(CC)n1 [CHEMBL1256824]			Inactive	4.00
Cc1ccc(C2(c3ccc(C)cc3)C(=O)N(c3ccc(Cl)cc3)C2c2cn(C)c3ccccc23)cc1 (centres unmarked) [CHEMBL2071567]	Active	5.94		
COCC1=C(C(=O)OC)C(c2cccc([N+](=O)[O-])c2)NC(=O)N1 (centres unmarked) [CHEMBL3786102]	Active	5.53		
CC1=C(C(=O)Nc2ccc(C(=O)/C=C/c3ccc(O)cc3)cc2)C(c2cccc(O)c2)NC(=S)N1 (centres unmarked) [CHEMBL3785704]	Active	5.98		
COc1ccc(/C=N\NC(N)=S)cc1OCc1cn(CC(=O)c2ccc(Br)cc2)nn1 [CHEMBL4175020]			Active	5.24
Cn1c([N+](=O)[O-])cnc1-c1nnc(N2CCN(C(=O)c3ccc(Cl)s3)CC2)s1 [CHEMBL521458]			Active	5.03
C=CCCC/C=C\C/C=C\CCCCCCCc1cc(O)cc(O)c1 [CHEMBL496449]			Inactive	4.98

SMILES	Outcome (L. major [1]; [3])	pIC50 Value (L. major [2]; [4])	Outcome (L. major [1]; [5])	pIC50 Value (L. major [2]; [6])
O=[N+]([O-])c1ccc(-c2c(-c3ccccc3)nc3ccccn23)cc1 [CHEMBL2151862]	Active	5.31		
COc1cc(CO)c(-c2ccc3c(c2O)[C@@H](C)N[C@H](C)C3)c2cccc(O)c12 [CHEMBL222805]			Inactive	4.00
COc1ccccc1-c1nnc(-c2ccc(C(=O)N/N=C/c3ccncc3)cc2)o1 [CHEMBL4080524]			Inactive	4.41
Cl.N=C(NCC1CCCO1)c1ccc(N2CCN(c3nnc(-c4ccc([N+](=O)[O-])o4)s3)CC2)cc1 (centres unmarked) [CHEMBL1783208]			Inactive	4.02
c1ccc2[nH]c(-c3c[nH]c4ccccc34)nc2c1 [CHEMBL2298015]	Active	5.43		
COc1ccc(/C=N/NC(N)=S)cc1OCc1cn(-c2ccc(S(N)(=O)=O)cc2)nn1 [CHEMBL4165645]	Active	5.36		
O=[N+]([O-])c1ccc(-c2nnc(NCc3cn(Cc4c(F)cccc4Cl)nn3)s2)o1 [CHEMBL1951532]			Inactive	4.76
N#CCC(=O)N1c2ccccc2Oc2ccccc21 [CHEMBL3758694]			Inactive	4.00
Cc1cc(C)nc(SCc2nn3c(-c4ccccc4)nnc3s2)n1 [CHEMBL1256856]			Inactive	4.00
COc1cc(COP(N)(=O)N(CCCl)CCCl)ccc1[N+](=O)[O-] (centres unmarked) [CHEMBL1256966]			Inactive	4.52
COc1ccccc1C(=O)N/N=C/c1cccc(O)c1O [CHEMBL2382046]			Inactive	4.17
Cc1ccc2cc(C3CC(c4ccc(C)s4)=NN3)c(Cl)nc2c1 (centres unmarked) [CHEMBL2236138]	Active	5.58		
Cc1ccc(N2NC(=O)/C(=C/c3cc4c(cc3Cl)OCO4)C2=O)cc1C [CHEMBL1256889]			Inactive	4.52
CN1CCN(S(=O)(=O)c2ccc(-c3ccc4c(Nc5ncc(Cl)cn5)ccnc4c3)cc2)CC1 [CHEMBL3637895]			Active	5.07
Cc1ccc(-c2nc3ccccc3[nH]2)cc1 [CHEMBL2283280]	Active	5.42		
COc1ccc(-c2c(-c3ccccc3)nc3cnccn23)cc1 [CHEMBL3634351]			Inactive	4.76
CCCN1CN(CC(=O)OCC)CSC1=S [CHEMBL4279218]			Inactive	3.97
O=C(c1cccc(Cl)c1)N1CCN(c2nnc(-c3ccc([N+](=O)[O-])s3)s2)CC1 [CHEMBL458778]			Inactive	4.30
CCOC(=O)C/C(=N/O)c1nnn[nH]1 [CHEMBL1255762]			Inactive	4.00
COc1cc(OC)c(-c2ccc(OC)c3c(OC)cc(C)cc23)c2c1C(C)=N[C@@H](C)C2 [CHEMBL390586]			Inactive	4.00
C=C[C@@]1(C)Cc2c(OC(C)=O)ccc(OC(C)=O)c2C[C@H]1C(=C)C [CHEMBL442439]	Active	5.37		
C[C@]12CC[C@H](O)C[C@@H]1CC[C@@H]1[C@@H]2CC[C@@]2(C)[C@H]1CC[C@@H]2[C@@](C)(O)c1cccnc1 [CHEMBL1214312]			Inactive	4.00

SMILES	Outcome (L. major [1]; [3])	pIC50 Value (L. major [2]; [4])	Outcome (L. major [1]; [5])	pIC50 Value (L. major [2]; [6])
C/C=C/c1cc(O)c(OC)c(OC)c1 [CHEMBL489518]			Inactive	3.43
Cc1ccc(Nc2ncnc3ccc([N+](=O)[O-])cc23)cc1C [CHEMBL3758240]			Inactive	4.45
Nc1ccc(-c2c(-c3ccccc3)nc3ccccn23)cc1 [CHEMBL2151863]			Inactive	4.37
N#Cc1ccc(-c2c(-c3ccccc3)nc3ccccn23)cc1 [CHEMBL2151864]			Inactive	4.00
COc1ccc(C(=O)/C=C/c2ccc(-n3ccnc3)cc2)cc1 [CHEMBL570461]	Active	5.49		
Cc1ccc2cc(/C=C/C(=O)c3ccc(Cl)s3)c(Cl)nc2c1 [CHEMBL1940856]	Active	5.63		
CCOc1ccc(N2C(=O)C(c3ccccc3)(c3ccccc3)C2c2cn(C)c3ccccc23)cc1 (centres unmarked) [CHEMBL2071562]	Active	5.93		
CC[C@H](CO)Nc1nc(NCc2ccccc2O)c2ncn(C(C)C)c2n1 [CHEMBL1094304]			Inactive	4.33
c1ccc(-c2nc3cnccn3c2-c2ccccc2)cc1 [CHEMBL3634350]			Inactive	4.58
Cc1cccc2cc(C3CC(c4ccc(Cl)s4)=NN3)c(Cl)nc12 (centres unmarked) [CHEMBL2236130]	Active	5.68		
COc1cccc2c(-c3ccc4c(c3O)[C@@H](C)N[C@H](C)C4)c(C)cc(OC)c12 [CHEMBL410597]			Inactive	4.33
Cc1ccc2cc(/C=C/C(=O)c3ccc(I)s3)c(Cl)nc2c1 [CHEMBL1940860]	Active	5.72		
Cc1cccc2cc(/C=C/C(=O)c3sccc3Cl)c(Cl)nc12 [CHEMBL1940866]	Active	5.65		
COc1ccc(OC)c(Nc2ncnc3ccc([N+](=O)[O-])cc23)c1 [CHEMBL3758611]			Inactive	4.91
COc1ccc(-n2nnc3c(N4CCCC(O)C4)nc(CC4CCCCC4)nc32)cc1 (centres unmarked) [CHEMBL2171512]			Active	5.07
O=C(c1ccc(Br)s1)N1CCN(c2nnc(-c3ccc([N+](=O)[O-])o3)s2)CC1 [CHEMBL458771]			Inactive	4.88
COc1cc(OC)c2c(C)[n+](-c3ccc(Br)cc3)c(C)cc2c1.F[B-](F)(F)F [CHEMBL520594]			Inactive	4.71
CC(=O)C1=C(CNc2ccc(C(=O)/C=C/c3cccc([N+](=O)[O-])c3)cc2)N(C)C(=O)NC1c1ccccc1 (centres unmarked) [CHEMBL3786374]	Active	5.88		
CCN1CSC(=S)N(C(C)c2ccccc2)C1 (centres unmarked) [CHEMBL4286479]			Inactive	4.34
CC1(C)Cc2c(Br)ccc(O)c2C=N1 [CHEMBL1275726]			Inactive	4.00
